The source of these data is US8129537B2, “Compounds as PDE IV and TNF inhibitors” (Rhone-Poulenc Rorer Limited, priority 1993, dated 2012).

In general, melting point refers to the temperature of the solid-liquid transition.

The compound `Cc1ncc(C(=S)Nc2c(Cl)cncc2Cl)cc1OC(C)C` [Compound CV, N-(3,5-dichloro-4-pyridyl)-5-isopropyloxy-6-methylthionicotinamide] came in with a melting point of 167 to 168 °C. The compound `COc1ncc(C(=O)Nc2c(Cl)cccc2Cl)cc1OC1CCCC1` [Compound CP, N-(2,6-dichlorophenyl)-5-cyclopentyloxy-6-methoxynicotinamide] registered a melting point of 145 to 146 °C. In the case of `COc1ccc(C(=O)Nc2c(Cl)cc(CO)cc2Cl)cc1OC1CCCC1` [BW, N-(2,6-dichloro-4-hydroxymethylphenyl)-3-cyclopentyloxy-4-methoxybenzamide] it was 174 to 176 °C; in that of `COc1ncc(C(=O)Nc2c(C)noc2C)cc1OC1CCCC1` [Compound CQ, 5-cyclopentyloxy-N-(3,5-dimethylisoxazol-4-yl)-6-methoxynicotinamide], 139 to 140 °C.

As to `COc1ccc(C(=O)C(=O)c2ccncc2)cc1OC1CCCC1` [Compound GK, 1-(3-cyclopentyloxy-4-methoxyphenyl)-2-(pyrid-4-yl)ethane-1,2-dione], the melting point was 117 to 119 °C. In turn, `COc1ccc(C(=O)Nc2ccccc2S(C)(=O)=O)cc1OC1CCCC1` [BM, N-(2-methylsulfonylphenyl)-3-cyclopentyloxy-4-methoxybenzamide] showed a melting point of 119 to 121 °C. The compound `COc1cnc(C(=O)Cc2c(Cl)cncc2Cl)cc1OC1CCCC1` [Compound FG, 1-(4-cyclopentyloxy-5-methoxypyridin-2-yl)-2-(3,5-dichloropyridin-4-yl)ethanone] returned a melting point of 132 °C. Consider `COc1ccc(C(=O)Nc2c(Cl)cc(NC(C)=O)cc2Cl)cc1OC1CCCC1` [BU, N-(4-acetylamino-2,6-dichlorophenyl)-3-cyclopentyloxy-4-methoxybenzamide], for which the melting point fell in the range of 250 to 252 °C. With `COc1ncc(C(=O)Nc2c(Cl)cncc2Cl)cc1OC1CCCC1` [Compound CO, 5-cyclopentyloxy-N-(3,5-dichloropyrid-4-yl)-6-methoxynicotinamide] the figure was 182 to 183 °C; with `COc1ncc(C(=O)Nc2c(F)cncc2F)cc1OC1CCCC1` [Compound CR, 5-cyclopentyloxy-N-(3,5-difluoropyrid-4-yl)-6-methoxynicotinamide], 210 to 211 °C. In the case of `O=C(Nc1c(Cl)cncc1Cl)c1cc(OC2CCCC2)c(OC(F)F)cn1` [Compound GO, N-(3,5-dichloropyridin-4-yl)-4-cyclopentyloxy-5-difluoromethoxypyridine-2-carboxamide] it was 131 to 132 °C; in that of `COc1ccc(C(=O)Nc2c(Cl)cc(C=O)cc2Cl)cc1OC1CCCC1` [BY, N-(2,6-dichloro-4-formylphenyl)-3-cyclopentyloxy-4-methoxy-benzamide], 96 to 98 °C. With `CSc1ncc(C(=O)Cc2c(Cl)cncc2Cl)cc1OC(C)C` [Compound CW, 2-(3,5-dichloro-4-pyridyl)-1-(5-isopropyloxy-6-methylthio-3-pyridyl)ethanone] the figure was 124 to 125 °C; with `COc1c[n+]([O-])c(C(=O)Nc2c(Cl)cncc2Cl)cc1OCC1CC1` [FZ, N-(3,5-dichloropyridin-4-yl)-4-cyclopropylmethoxy-5-methoxy-1-oxidopyridinium-2-carboxamide], 178 to 180 °C. In turn, `COc1ccc(C(=O)Nc2c(Cl)cc(N)cc2Cl)cc1OC1CCCC1` [BS, N-(2,6-dichloro-4-aminophenyl)-3-cyclopentyloxy-4-methoxybenzamide] gave a melting point of 170 to 172 °C. In the case of `COc1ccc(/C=C/c2c(Cl)cccc2Cl)cc1OC1CCCC1` [Compound GF, trans-1-(3-cyclopentyloxy-4-methoxyphenyl)-2-(2,6-dichlorophenyl)ethene] it was 47 to 49 °C. In the case of `COc1cnc(C(=O)Nc2c(Cl)cncc2Cl)cc1OC1CCCC1` [DA, N-(3,5-dichloropyrid-4-yl)-4-cyclopentyloxy-5-methoxypyridine-2-carboxamide] it was 129 to 130 °C; in that of `COc1ccc(C(=O)Nc2c(Cl)cncc2Cl)cc1OC1C=CCC1` (racemic) [BI, (±)-N-(3,5-dichloropyrid-4-yl)-3-cyclopent-2-enyloxy-4-methoxybenzamide], 177 to 178 °C. With `COc1ncc(C(=O)Cc2c(Cl)cncc2Cl)cc1OC1CCCC1` [Compound CT, 1-(5-cyclopentyloxy-6-methoxypyridin-3-yl)-2-(3,5-dichloropyrid-4-yl)ethanone] the figure was 118 to 119 °C. Turning to `Cc1ncc(C(=S)Nc2c(Cl)cncc2Cl)cc1OC1CCCC1` [Compound CU, 5-cyclopentyloxy-N-(3,5-dichloro-4-pyridyl)-6-methylthionicotinamide], the melting point fell in the range of 144 to 145 °C. In the case of `COc1ccc(C(=O)Nc2c(Cl)cncc2Cl)cc1OC1CC=CC1` [BK, N-(3,5-dichloropyrid-4-yl)-3-cyclopent-3-enyloxy-4-methoxybenzamide] it was 193 to 195 °C. In the case of `COc1cc(F)c(C(=O)Nc2c(Cl)cncc2Cl)cc1OC1CCCC1` [A, N-(3,5-dichloropyrid-4-yl)-3-cyclopentyloxy-6-fluoro-4-methoxybenzamide] it was 143 to 144 °C. With `COc1ccc(C(=O)Nc2c(Cl)cncc2Cl)nc1OC1CCCC1` [Compound CS, 6-cyclopentyloxy-N-(3,5-dichloropyrid-4-yl)-5-methoxypyridine-2-carboxamide] the figure was 164 to 166 °C. As for `COc1cc(F)c(C(=O)Cc2c(Cl)cncc2Cl)cc1OC1CCCC1` [Compound CH, 2-(3,5-dichloropyrid-4-yl)-1-(3-cyclopentyloxy-6-fluoro-4-methoxyphenyl)ethanone], the melting point fell in the range of 115 to 116.5 °C.
